Data published in PubChem BioAssay (NCI).
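Growth conditions: 96-well plates. Treatment: test compound, 48 hours, 5 concentrations. Analysis: linear interpolation between bracketing concentrations; unreached endpoints set to highest concentration. TGI marks complete inhibition of growth.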

These compounds were tested on U251 CNS (assay: growth of human tumour cells (NCI), 48 h).

Row | Compound | TGI [µM]
1 | CC(C)NC(=O)OCCN=c1c2ccccc2ccc2ccccc12 | > 100
2 | O=c1oc2ccc([N+](=O)[O-])cc2c(Nc2ccc3c(c2)Oc2ccccc2O3)c1[N+](=O)[O-] | 38.7
3 | Cn1c2ccccc2c(=O)c2cccc(C(=O)NC(CCCN=C(N)N)C(=O)O)c21 (stereo not drawn) | > 100
4 | Cn1c2ccccc2c(=NNc2cccc(C(=O)O)c2)c2ccccc21 | 28.7

These compounds were tested on UACC-257 melanoma (assay: growth of human tumour cells (NCI), 48 h).

Row | Compound | TGI [µM]
5 | COc1ccc(N2C(=O)CSC2c2c[nH]c3ccccc23)cc1 (stereo not drawn) | > 100
6 | CC(C)(C)C(=O)CC1=Nc2ccccc2SC1(O)CC(=O)C(C)(C)C (stereo not drawn) | > 100
7 | N#CC1=C(N)N(c2ccccc2)C(c2ccccc2)C1(C#N)C#N (stereo not drawn) | 34.9
8 | CCCCN=C(c1ccccc1)N1CCOCC1 | > 100
9 | CCOC(=O)c1ccc(C)c(N=NN(C)C)c1 | > 100
10 | CC(C)CC(O)P(=O)(O)O (stereo not drawn) | > 100
11 | CCC1(C)C=Cc2c(cc(O)c3c(=O)c4ccccc4n(C)c23)O1 (stereo not drawn) | > 10
12 | Cc1ccc(S(=O)(=O)NC(=O)N[C@@H](Cc2cnc[nH]2)C(=O)O)cc1 | > 100
13 | O=NN(CCCl)C(=O)NC1CCC(O)CC1 (stereo not drawn) | > 85.2
14 | Nc1[nH]nc2nc3ccc(C(F)(F)F)cc3nc12 | 45.4
15 | O=[N+]([O-])/C(C(Cl)=C(Cl)Cl)=C(\N1CCCCC1)n1cncn1 | 36.6
16 | O=C1c2cccnc2-c2nccc3c2c1nc1cc(Br)ccc13 | 0.837
17 | NNC(=O)CSc1nc2ccccc2c(=O)n1N | > 100
18 | Cc1cc(S(=O)(=O)Nc2nc3cc(-c4ccc(Cl)cc4)sc3c(=O)n2N)c(S)cc1Cl | > 100
19 | CCC(=O)ONC(=O)Cn1ccc([N+](=O)[O-])n1 | > 100
20 | CC(=O)NC1c2ccccc2C(C)(C)C12CCC1(CC2)OCCO1 (stereo not drawn) | > 100
21 | CN1COCc2c1ccc1cc3ccc4c(c3nc21)COCN4S(C)(=O)=O | > 100
22 | Oc1cccc(-c2nc3cc(F)ccc3s2)c1 | 34.3
23 | CN(C)c1ccc(C2SCC(=O)N2c2ccc(Oc3ccc(Cl)cc3)c(Cl)c2)cc1 (stereo not drawn) | > 100
24 | CC(C(O)Cc1ccccc1)N(C)N=Nc1ccc([N+](=O)[O-])cc1 (stereo not drawn) | 45.4
25 | CC(C)NC(=O)OCCN=c1c2ccccc2ccc2ccccc12 | > 100
26 | O=c1oc2ccc([N+](=O)[O-])cc2c(Nc2ccc3c(c2)Oc2ccccc2O3)c1[N+](=O)[O-] | 76.6
27 | Cn1c2ccccc2c(=O)c2cccc(C(=O)NC(CCCN=C(N)N)C(=O)O)c21 (stereo not drawn) | > 100
28 | COc1cc(OC)c(C2c3cc4c(cc3OC(N3CCCC3)C2C)OCO4)c(OC)c1 (stereo not drawn) | 73
29 | Cn1c2ccccc2c(=NNc2cccc(C(=O)O)c2)c2ccccc21 | 58.6
30 | O=C1C(=Cc2ccccc2O)N=C(c2ccccc2)N1n1c(-c2ccccc2)nc2ccccc2c1=O | 69.1

The compounds below were run on UACC-62 melanoma (assay: growth of human tumour cells (NCI), 48 h).

Row | Compound | TGI [µM]
31 | COc1ccc(N2C(=O)CSC2c2c[nH]c3ccccc23)cc1 (stereo not drawn) | > 100
32 | CC(C)(C)C(=O)CC1=Nc2ccccc2SC1(O)CC(=O)C(C)(C)C (stereo not drawn) | 31.3
33 | N#CC1=C(N)N(c2ccccc2)C(c2ccccc2)C1(C#N)C#N (stereo not drawn) | 45.7
34 | CCCCN=C(c1ccccc1)N1CCOCC1 | > 100
35 | CCOC(=O)c1ccc(C)c(N=NN(C)C)c1 | > 100
36 | CC(C)CC(O)P(=O)(O)O (stereo not drawn) | > 100
37 | CCC1(C)C=Cc2c(cc(O)c3c(=O)c4ccccc4n(C)c23)O1 (stereo not drawn) | > 10
38 | Cc1ccc(S(=O)(=O)NC(=O)N[C@@H](Cc2cnc[nH]2)C(=O)O)cc1 | > 100
39 | O=NN(CCCl)C(=O)NC1CCC(O)CC1 (stereo not drawn) | 40.4
40 | Nc1[nH]nc2nc3ccc(C(F)(F)F)cc3nc12 | 69.1
41 | O=[N+]([O-])/C(C(Cl)=C(Cl)Cl)=C(\N1CCCCC1)n1cncn1 | 33
42 | S=C(Nc1ccc2c(c1)oc1ccccc12)c1cccnc1 | > 100
43 | O=C1c2cccnc2-c2nccc3c2c1nc1cc(Br)ccc13 | 0.373
44 | NNC(=O)CSc1nc2ccccc2c(=O)n1N | > 100
45 | Cc1cc(S(=O)(=O)Nc2nc3cc(-c4ccc(Cl)cc4)sc3c(=O)n2N)c(S)cc1Cl | > 100
46 | CCC(=O)ONC(=O)Cn1ccc([N+](=O)[O-])n1 | > 100
47 | CC(=O)NC1c2ccccc2C(C)(C)C12CCC1(CC2)OCCO1 (stereo not drawn) | > 100
48 | CN1COCc2c1ccc1cc3ccc4c(c3nc21)COCN4S(C)(=O)=O | > 100
49 | Oc1cccc(-c2nc3cc(F)ccc3s2)c1 | 35.1
50 | CN(C)c1ccc(C2SCC(=O)N2c2ccc(Oc3ccc(Cl)cc3)c(Cl)c2)cc1 (stereo not drawn) | 42.7
51 | CC(C(O)Cc1ccccc1)N(C)N=Nc1ccc([N+](=O)[O-])cc1 (stereo not drawn) | 37.6
52 | COc1ccc(/C=C2\N=C(SC)NC2=O)cc1 | > 100
53 | CC(C)NC(=O)OCCN=c1c2ccccc2ccc2ccccc12 | > 100
54 | O=c1oc2ccc([N+](=O)[O-])cc2c(Nc2ccc3c(c2)Oc2ccccc2O3)c1[N+](=O)[O-] | > 100
55 | Cn1c2ccccc2c(=O)c2cccc(C(=O)NC(CCCN=C(N)N)C(=O)O)c21 (stereo not drawn) | > 100
56 | COc1cc(OC)c(C2c3cc4c(cc3OC(N3CCCC3)C2C)OCO4)c(OC)c1 (stereo not drawn) | 69.6
57 | Cn1c2ccccc2c(=NNc2cccc(C(=O)O)c2)c2ccccc21 | 39.8
58 | O=C1C(=Cc2ccccc2O)N=C(c2ccccc2)N1n1c(-c2ccccc2)nc2ccccc2c1=O | > 100
